Where “and” joins values, the source holds several entries; their conditions need not be identical. Equal values may be shown once. Inconclusive results and toxic doses are left out. The calls were made as follows: active = survival T/C of 150% or more; inactive = T/C below 125% in these data.
System: BDF1 mice, B16 melanoma ip, median survival T/C
Assay: NCI In Vivo Anticancer Drug Screen. Data for tumor model B16 Melanoma (intraperitoneal) in B6D2F1 (BDF1) mice
Settings: endpoint: median survival time, higher = longer survival
Method in brief: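 Compounds were tested in mice carrying transplantable tumors. Survival or tumor size was recorded, and each value is the treated-group measurement (T) divided by that of the vehicle-treated control group (C).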

[1] = dose: 25.0 mg/kg/injection, schedule: Q01DX009 (ip), vehicle: saline with Tween-80
[2] = dose: 50.0 mg/kg/injection, schedule: Q01DX009 (ip), vehicle: saline with Tween-80
[3] = dose: 50.0 mg/kg/injection, schedule: Q01DX009 (ip), vehicle: Klucel (hydroxypropylcellulose) (HPC)
[4] = dose: 100.0 mg/kg/injection, schedule: Q01DX009 (ip), vehicle: Klucel (hydroxypropylcellulose) (HPC)
[5] = dose: 100.0 mg/kg/injection, schedule: Q01DX009 (ip), vehicle: saline
[6] = dose: 200.0 mg/kg/injection, schedule: Q01DX009 (ip), vehicle: Klucel (hydroxypropylcellulose) (HPC)
[7] = dose: 400.0 mg/kg/injection, schedule: Q01DX009 (ip), vehicle: Klucel (hydroxypropylcellulose) (HPC)
[8] = dose: 25.0 mg/kg/injection, schedule: Q01DX009 (ip), vehicle: Klucel (hydroxypropylcellulose) (HPC)
[9] = dose: 100.0 mg/kg/injection, schedule: Q01DX009 (ip), vehicle: saline with Tween-80

Measured: T/C

Cc1cc(=NO)cc(C)n1O
inactive: dose: 25.0 mg/kg/injection, schedule: Q01DX009 (ip), vehicle: distilled water + alcohol 100 % of control | dose: 50.0 mg/kg/injection, schedule: Q01DX009 (ip), vehicle: distilled water + alcohol 98 % of control | dose: 200.0 mg/kg/injection, schedule: Q01DX009 (ip), vehicle: distilled water + alcohol 86 % of control

CC(Br)C(=O)NC(C)C(=O)O (centres undefined)
inactive: dose: 12.5 mg/kg/injection, schedule: Q01DX009 (ip), vehicle: saline with Tween-80 93 % of control | [1] 89 % of control | [2] 90 % of control

CC(C)(C)CC(N)=O
inactive: [3] 112 % of control | [4] 100 % of control | [5] 107 % of control | [6] 105 % of control | dose: 200.0 mg/kg/injection, schedule: Q01DX009 (ip), vehicle: saline 123 % of control | [7] 105 % of control | dose: 400.0 mg/kg/injection, schedule: Q01DX009 (ip), vehicle: saline 107 % of control

NCCSC(C[N+](=O)[O-])c1ccc2c(c1)OCO2 (centres undefined)
inactive: dose: 50.0 mg/kg/injection, schedule: Q04DX003 (ip), vehicle: saline with Tween-80 102 % of control | dose: 100.0 mg/kg/injection, schedule: Q04DX003 (ip), vehicle: saline with Tween-80 105 % of control | dose: 200.0 mg/kg/injection, schedule: Q04DX003 (ip), vehicle: saline with Tween-80 105 % of control

NC(=O)CC1=NCCc2ccccc21
inactive: dose: 25.0 mg/kg/injection, schedule: Q01DX009 (ip), vehicle: saline 105 % of control | dose: 50.0 mg/kg/injection, schedule: Q01DX009 (ip), vehicle: saline 97 % of control | [5] 91 % of control and 105 % of control

COc1ccccc1NC(N)=S
inactive: [8] 110 % of control | [3] 103 % of control | [4] 100 % of control

c1ccc(CSSCc2ccccc2)cc1
inactive: [4] 113 % of control | [6] 114 % of control | [7] 108 % of control

COc1cc2c3c(c1)-c1nc4ccccc4cc1CN3CCC2
inactive: dose: 25.0 mg/kg/injection, schedule: Q04DX003 (ip), vehicle: alcohol 111 % of control | dose: 50.0 mg/kg/injection, schedule: Q04DX003 (ip), vehicle: alcohol 104 % of control | dose: 100.0 mg/kg/injection, schedule: Q04DX003 (ip), vehicle: alcohol 106 % of control | dose: 200.0 mg/kg/injection, schedule: Q04DX003 (ip), vehicle: alcohol 98 % of control

CCc1ccccc1NC(=O)Nc1ccc(Cl)cc1
inactive: dose: 100.0 mg/kg/injection, schedule: Q01DX009 (ip), vehicle: gum acacia 101 % of control | dose: 200.0 mg/kg/injection, schedule: Q01DX009 (ip), vehicle: gum acacia 97 % of control | dose: 400.0 mg/kg/injection, schedule: Q01DX009 (ip), vehicle: gum acacia 93 % of control

CC(=O)N(C(C)=O)c1ccc(N=Nc2ccccc2C)cc1C
inactive: dose: 12.5 mg/kg/injection, schedule: Q01DX009 (ip), vehicle: Klucel (hydroxypropylcellulose) (HPC) 94 % of control | [8] 117 % of control | [3] 100 % of control | [4] 100 % of control | [6] 87 % of control

CO[C@H](C(=O)[C@@H](O)[C@@H](C)O)[C@@H]1Cc2cc3cc(OC4CC(OC5CC(O)C(O)C(C)O5)C(O)C(C)O4)c(C)c(O)c3c(O)c2C(=O)[C@H]1OC1CC(OC2CC(OC3CC(C)(O)C(O)C(C)O3)C(O)C(C)O2)C(O)C(C)O1 (some centres undefined)
inactive: dose: 0.02 mg/kg/injection, schedule: Q01DX009 (ip), vehicle: water 103 % of control | dose: 0.05 mg/kg/injection, schedule: Q01DX009 (ip), vehicle: water 106 % of control | dose: 0.06 mg/kg/injection, schedule: Q01DX009 (ip), vehicle: saline 101 % of control | dose: 0.1 mg/kg/injection, schedule: Q01DX009 (ip), vehicle: water 100 % of control and 103 % of control | dose: 0.12 mg/kg/injection, schedule: Q01DX009 (ip), vehicle: saline 101 % of control | dose: 0.12 mg/kg/injection, schedule: Q01DX009 (ip), vehicle: water 96 % of control | dose: 0.13 mg/kg/injection, schedule: Q01DX009 (ip), vehicle: clinical formulation 100 % of control | dose: 0.13 mg/kg/injection, schedule: Q01DX009 (ip), vehicle: saline 100 % of control and 109 % of control | dose: 0.13 mg/kg/injection, schedule: Q01DX009 (ip), vehicle: water 94 % of control | dose: 0.2 mg/kg/injection, schedule: Q01DX009 (ip), vehicle: water 111 % of control | dose: 0.25 mg/kg/injection, schedule: Q01DX009 (ip), vehicle: clinical formulation 102 % of control | dose: 0.25 mg/kg/injection, schedule: Q01DX009 (ip), vehicle: saline 100 % of control and 104 % of control and 111 % of control | dose: 0.25 mg/kg/injection, schedule: Q01DX009 (ip), vehicle: water 98 % of control | dose: 0.4 mg/kg/injection, schedule: Q01DX009 (ip), vehicle: water 111 % of control | dose: 0.5 mg/kg/injection, schedule: Q01DX009 (ip), vehicle: clinical formulation 100 % of control | dose: 0.5 mg/kg/injection, schedule: Q01DX009 (ip), vehicle: saline 97 % of control and 105 % of control and 121 % of control | dose: 0.5 mg/kg/injection, schedule: Q01DX009 (ip), vehicle: water 98 % of control | dose: 0.6 mg/kg/injection, schedule: Q01DX009 (ip), vehicle: water 102 % of control | dose: 0.75 mg/kg/injection, schedule: Q01DX009 (ip), vehicle: saline 104 % of control | dose: 1.0 mg/kg/injection, schedule: Q01DX009 (ip), vehicle: clinical formulation 105 % of control | dose: 1.0 mg/kg/injection, schedule: Q01DX009 (ip), vehicle: saline 97 % of control and 106 % of control and 109 % of control | dose: 62.0 micrograms/kg/injection, schedule: Q01DX009 (ip), vehicle: saline 98 % of control | dose: 125.0 micrograms/kg/injection, schedule: Q01DX009 (ip), vehicle: saline 105 % of control | dose: 125.0 micrograms/kg/injection, schedule: Q01DX009 (ip), vehicle: water 94 % of control | dose: 250.0 micrograms/kg/injection, schedule: Q01DX009 (ip), vehicle: saline 119 % of control | dose: 500.0 micrograms/kg/injection, schedule: Q01DX009 (ip), vehicle: saline 111 % of control | dose: 500.0 micrograms/kg/injection, schedule: Q01DX009 (ip), vehicle: water 110 % of control | dose: 1000.0 micrograms/kg/injection, schedule: Q01DX009 (ip), vehicle: saline 115 % of control | dose: 1000.0 micrograms/kg/injection, schedule: Q01DX009 (ip), vehicle: water 109 % of control

Cc1ccc(C)c(NS(=O)(=O)c2ccc(Cl)cc2)c1
inactive: [4] 93 % of control | [6] 92 % of control

CCCCCCCCCCCCCC[n+]1ccccc1
inactive: dose: 0.06 mg/kg/injection, schedule: Q01DX009 (ip), vehicle: saline with Tween-80 86 % of control and 89 % of control | dose: 0.13 mg/kg/injection, schedule: Q01DX009 (ip), vehicle: saline with Tween-80 90 % of control | dose: 0.25 mg/kg/injection, schedule: Q01DX009 (ip), vehicle: saline with Tween-80 86 % of control | dose: 8.0 micrograms/kg/injection, schedule: Q01DX009 (ip), vehicle: saline 88 % of control | dose: 15.0 micrograms/kg/injection, schedule: Q01DX009 (ip), vehicle: saline 91 % of control | dose: 30.0 micrograms/kg/injection, schedule: Q01DX009 (ip), vehicle: saline 94 % of control | dose: 60.0 micrograms/kg/injection, schedule: Q01DX009 (ip), vehicle: saline 88 % of control

Nc1ccccc1SC1CC(=O)N(c2ccccc2Cl)C1=O (centres undefined)
inactive: [4] 94 % of control | [6] 86 % of control

COc1ccc2nonc2c1
inactive: [1] 107 % of control | [2] 95 % of control | [9] 91 % of control | dose: 200.0 mg/kg/injection, schedule: Q01DX009 (ip), vehicle: saline with Tween-80 101 % of control

CCN(c1ccccc1C)S(=O)(=O)c1ccccc1
inactive: [1] 100 % of control | [2] 101 % of control | [4] 96 % of control | [9] 96 % of control

CCC[CH2][Sn]1([CH2]CCC)[O]C2C(CO)OC(n3ccc(N)nc3=O)C2[O]1 (centres undefined)
inactive: dose: 0.78 mg/kg/injection, schedule: Q01DX009 (ip), vehicle: Klucel (hydroxypropylcellulose) (HPC) 99 % of control | dose: 1.56 mg/kg/injection, schedule: Q01DX009 (ip), vehicle: Klucel (hydroxypropylcellulose) (HPC) 123 % of control | dose: 3.12 mg/kg/injection, schedule: Q01DX009 (ip), vehicle: Klucel (hydroxypropylcellulose) (HPC) 116 % of control | dose: 6.25 mg/kg/injection, schedule: Q01DX009 (ip), vehicle: Klucel (hydroxypropylcellulose) (HPC) 104 % of control and 124 % of control

From PubChem BioAssay AID192 (DTP/NCI, 2004)
